Our source for the AC50 values is ChEMBL document CHEMBL5291721, “A preclinical secondary pharmacology resource illuminates target-adverse drug reaction associations of marketed drugs” (Nat Commun, 2023).

For series [1], the target named is T1, Alpha-2A adrenergic receptor (Homo sapiens, UniProt P08913).
T1 sequence (P08913 whole entry): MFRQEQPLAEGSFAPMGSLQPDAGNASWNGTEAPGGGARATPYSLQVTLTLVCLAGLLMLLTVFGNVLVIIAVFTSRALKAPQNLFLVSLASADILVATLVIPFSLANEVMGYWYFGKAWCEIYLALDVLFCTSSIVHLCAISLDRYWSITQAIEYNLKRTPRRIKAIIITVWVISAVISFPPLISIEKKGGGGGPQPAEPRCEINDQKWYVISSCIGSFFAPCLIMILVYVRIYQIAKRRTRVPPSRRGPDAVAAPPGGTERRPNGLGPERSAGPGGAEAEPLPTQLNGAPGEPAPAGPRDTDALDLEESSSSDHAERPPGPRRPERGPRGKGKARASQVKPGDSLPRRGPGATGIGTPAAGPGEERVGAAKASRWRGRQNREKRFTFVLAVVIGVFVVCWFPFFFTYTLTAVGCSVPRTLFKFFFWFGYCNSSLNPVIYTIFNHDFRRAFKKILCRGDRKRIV
It is filed as functional, cell-based.

Series [2] addresses Beta-2 adrenergic receptor (Homo sapiens, UniProt P07550).
The target of series [3] is T2, Type-1 angiotensin II receptor (Homo sapiens, UniProt P30556).
T2 sequence (P30556 whole entry): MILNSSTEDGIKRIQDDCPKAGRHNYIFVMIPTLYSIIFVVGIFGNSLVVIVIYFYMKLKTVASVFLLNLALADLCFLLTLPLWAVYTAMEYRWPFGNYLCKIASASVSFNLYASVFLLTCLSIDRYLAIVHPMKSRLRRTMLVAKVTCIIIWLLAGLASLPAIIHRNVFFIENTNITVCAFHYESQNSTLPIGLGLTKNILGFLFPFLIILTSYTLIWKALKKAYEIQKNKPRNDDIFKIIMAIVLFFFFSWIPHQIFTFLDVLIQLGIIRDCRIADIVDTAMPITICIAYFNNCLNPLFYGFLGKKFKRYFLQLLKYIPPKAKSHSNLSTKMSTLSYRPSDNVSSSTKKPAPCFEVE

Series [4] addresses Vasopressin V1a receptor (Homo sapiens, UniProt P37288).
For series [5], the target named is Voltage-dependent L-type calcium channel subunit alpha-1C (Rattus norvegicus, UniProt P22002). Type of series: functional.
Series [6] has as its target T3, Muscarinic acetylcholine receptor M1 (Homo sapiens, UniProt P11229).
T3 sequence (P11229 whole entry): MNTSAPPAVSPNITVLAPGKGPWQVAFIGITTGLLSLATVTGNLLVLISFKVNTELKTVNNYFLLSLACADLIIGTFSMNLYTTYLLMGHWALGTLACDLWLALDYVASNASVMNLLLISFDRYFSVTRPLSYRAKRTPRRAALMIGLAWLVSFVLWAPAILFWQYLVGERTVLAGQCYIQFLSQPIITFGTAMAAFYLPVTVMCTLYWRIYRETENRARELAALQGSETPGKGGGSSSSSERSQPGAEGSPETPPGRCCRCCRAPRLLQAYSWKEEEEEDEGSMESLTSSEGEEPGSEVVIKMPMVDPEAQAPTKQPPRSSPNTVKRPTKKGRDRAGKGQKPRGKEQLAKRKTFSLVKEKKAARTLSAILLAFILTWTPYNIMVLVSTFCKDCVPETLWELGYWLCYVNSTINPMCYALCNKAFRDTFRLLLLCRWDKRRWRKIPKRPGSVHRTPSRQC
It is filed as functional.

In series [7] the target is Cannabinoid receptor 1 (Homo sapiens, UniProt P21554). It is filed as functional, cell-based.
The target in series [8] is D(1A) dopamine receptor (Homo sapiens, UniProt P21728). It is filed as functional, cell-based.
Series [9] concerns the target T4, Gamma-aminobutyric acid receptor subunit alpha-1 (Rattus norvegicus, UniProt P62813).
Series [10] has as its target T4, Gamma-aminobutyric acid receptor subunit alpha-1. Type of series: functional.
The target of series [11] is Growth hormone secretagogue receptor type 1 (Homo sapiens, UniProt Q92847).
Series [12] has as its target T5, 5-hydroxytryptamine receptor 3A (Homo sapiens, UniProt P46098).
T5 sequence (P46098 whole entry): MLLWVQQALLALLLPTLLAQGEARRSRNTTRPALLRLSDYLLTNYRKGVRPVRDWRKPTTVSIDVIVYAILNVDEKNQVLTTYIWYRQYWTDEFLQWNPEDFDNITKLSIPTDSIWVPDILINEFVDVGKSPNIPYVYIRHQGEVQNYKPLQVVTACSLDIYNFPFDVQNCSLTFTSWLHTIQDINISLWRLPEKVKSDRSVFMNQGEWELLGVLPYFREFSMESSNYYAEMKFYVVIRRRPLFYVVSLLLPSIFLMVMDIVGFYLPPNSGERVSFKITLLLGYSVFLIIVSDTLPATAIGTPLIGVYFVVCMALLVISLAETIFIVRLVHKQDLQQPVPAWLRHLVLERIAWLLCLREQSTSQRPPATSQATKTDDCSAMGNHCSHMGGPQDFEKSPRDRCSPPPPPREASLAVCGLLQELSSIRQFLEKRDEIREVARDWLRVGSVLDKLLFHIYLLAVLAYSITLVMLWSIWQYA
Type of series: functional.

Series [13] has as its target Voltage-gated inwardly rectifying potassium channel KCNH2 (Homo sapiens, UniProt Q12809). Type of series: functional.
The target in series [14] is Melanocortin receptor 4 (Homo sapiens, UniProt P32245).
Series [15] deals with Kappa-type opioid receptor (Homo sapiens, UniProt P41145).
For series [16], the target named is Sodium-dependent dopamine transporter (Homo sapiens, UniProt Q01959).
The target of series [17] is D(3) dopamine receptor (Homo sapiens, UniProt P35462).
Note: assay procedure not described here.

Sequence of Growth hormone secretagogue receptor type 1 (Q92847 whole entry): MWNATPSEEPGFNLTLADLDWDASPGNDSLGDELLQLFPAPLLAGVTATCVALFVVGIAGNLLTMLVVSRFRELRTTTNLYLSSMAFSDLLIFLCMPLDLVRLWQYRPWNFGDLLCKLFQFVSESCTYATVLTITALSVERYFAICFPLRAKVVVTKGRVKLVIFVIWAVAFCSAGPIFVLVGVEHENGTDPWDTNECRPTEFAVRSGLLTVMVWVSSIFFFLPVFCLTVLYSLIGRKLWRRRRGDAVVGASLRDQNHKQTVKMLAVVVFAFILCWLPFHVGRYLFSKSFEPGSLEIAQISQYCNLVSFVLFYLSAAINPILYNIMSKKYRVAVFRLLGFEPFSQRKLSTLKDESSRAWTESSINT
Sequence of Cannabinoid receptor 1 (P21554 whole entry): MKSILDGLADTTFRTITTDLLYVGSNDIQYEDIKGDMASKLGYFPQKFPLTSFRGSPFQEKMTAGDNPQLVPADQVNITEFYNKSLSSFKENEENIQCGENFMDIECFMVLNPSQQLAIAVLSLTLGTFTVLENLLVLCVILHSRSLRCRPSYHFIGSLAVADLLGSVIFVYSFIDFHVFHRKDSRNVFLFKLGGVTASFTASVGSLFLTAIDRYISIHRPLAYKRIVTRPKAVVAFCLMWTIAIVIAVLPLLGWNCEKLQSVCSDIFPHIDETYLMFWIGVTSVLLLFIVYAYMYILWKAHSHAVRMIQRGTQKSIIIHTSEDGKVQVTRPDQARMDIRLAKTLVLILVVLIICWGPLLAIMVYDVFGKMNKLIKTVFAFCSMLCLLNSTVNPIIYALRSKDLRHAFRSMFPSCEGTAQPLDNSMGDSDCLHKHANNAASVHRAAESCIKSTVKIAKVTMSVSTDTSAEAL
Sequence of D(3) dopamine receptor (P35462 whole entry): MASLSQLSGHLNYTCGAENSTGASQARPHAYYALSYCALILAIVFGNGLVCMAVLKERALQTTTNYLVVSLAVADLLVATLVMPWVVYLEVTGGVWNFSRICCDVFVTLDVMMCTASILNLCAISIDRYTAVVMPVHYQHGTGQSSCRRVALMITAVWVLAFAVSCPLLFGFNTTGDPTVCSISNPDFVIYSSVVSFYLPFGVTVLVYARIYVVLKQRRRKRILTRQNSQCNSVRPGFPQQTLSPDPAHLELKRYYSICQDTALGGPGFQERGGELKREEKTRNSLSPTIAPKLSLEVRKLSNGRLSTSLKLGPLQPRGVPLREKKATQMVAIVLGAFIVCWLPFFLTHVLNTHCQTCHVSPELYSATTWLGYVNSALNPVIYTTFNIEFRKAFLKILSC
Sequence of Sodium-dependent dopamine transporter (Q01959 whole entry): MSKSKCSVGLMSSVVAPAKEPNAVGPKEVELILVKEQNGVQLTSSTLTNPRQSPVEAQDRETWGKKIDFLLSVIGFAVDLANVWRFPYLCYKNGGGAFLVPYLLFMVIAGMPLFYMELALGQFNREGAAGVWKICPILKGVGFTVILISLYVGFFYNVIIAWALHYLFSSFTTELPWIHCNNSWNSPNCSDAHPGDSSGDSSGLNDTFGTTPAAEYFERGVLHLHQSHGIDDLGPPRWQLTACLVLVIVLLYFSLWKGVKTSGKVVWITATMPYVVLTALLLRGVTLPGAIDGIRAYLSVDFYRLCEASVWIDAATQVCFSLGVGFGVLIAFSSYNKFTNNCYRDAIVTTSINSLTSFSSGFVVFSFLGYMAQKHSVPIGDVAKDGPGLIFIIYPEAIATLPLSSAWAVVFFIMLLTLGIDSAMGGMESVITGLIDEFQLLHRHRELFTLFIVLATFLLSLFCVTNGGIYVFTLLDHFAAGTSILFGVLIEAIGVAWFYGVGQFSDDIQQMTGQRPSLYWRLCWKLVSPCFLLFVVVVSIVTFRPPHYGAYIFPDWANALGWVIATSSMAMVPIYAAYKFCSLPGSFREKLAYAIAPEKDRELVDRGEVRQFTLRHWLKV
Sequence of D(1A) dopamine receptor (P21728 whole entry): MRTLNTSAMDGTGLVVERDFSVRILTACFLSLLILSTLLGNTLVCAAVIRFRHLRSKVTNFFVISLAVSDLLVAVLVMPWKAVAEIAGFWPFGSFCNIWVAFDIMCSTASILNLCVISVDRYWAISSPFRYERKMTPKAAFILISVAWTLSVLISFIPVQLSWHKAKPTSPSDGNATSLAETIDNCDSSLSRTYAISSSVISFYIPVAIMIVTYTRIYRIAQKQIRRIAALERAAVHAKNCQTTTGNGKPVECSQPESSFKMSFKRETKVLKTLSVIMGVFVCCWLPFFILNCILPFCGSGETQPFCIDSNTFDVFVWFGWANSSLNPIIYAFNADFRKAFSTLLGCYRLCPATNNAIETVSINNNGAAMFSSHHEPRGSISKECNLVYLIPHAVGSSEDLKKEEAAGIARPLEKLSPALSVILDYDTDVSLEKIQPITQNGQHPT
Sequence of Vasopressin V1a receptor (P37288 whole entry): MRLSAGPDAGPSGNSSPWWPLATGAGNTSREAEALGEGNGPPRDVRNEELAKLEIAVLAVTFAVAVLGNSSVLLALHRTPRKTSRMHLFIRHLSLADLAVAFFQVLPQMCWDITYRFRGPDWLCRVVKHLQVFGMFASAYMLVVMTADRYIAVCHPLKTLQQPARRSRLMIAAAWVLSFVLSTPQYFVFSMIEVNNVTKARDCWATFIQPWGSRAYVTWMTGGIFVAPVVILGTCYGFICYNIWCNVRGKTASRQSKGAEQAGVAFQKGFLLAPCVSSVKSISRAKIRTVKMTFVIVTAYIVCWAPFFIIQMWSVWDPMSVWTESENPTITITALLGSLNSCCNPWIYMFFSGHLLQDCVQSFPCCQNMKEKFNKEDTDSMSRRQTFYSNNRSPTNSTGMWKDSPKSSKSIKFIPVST
Sequence of Kappa-type opioid receptor (P41145 whole entry): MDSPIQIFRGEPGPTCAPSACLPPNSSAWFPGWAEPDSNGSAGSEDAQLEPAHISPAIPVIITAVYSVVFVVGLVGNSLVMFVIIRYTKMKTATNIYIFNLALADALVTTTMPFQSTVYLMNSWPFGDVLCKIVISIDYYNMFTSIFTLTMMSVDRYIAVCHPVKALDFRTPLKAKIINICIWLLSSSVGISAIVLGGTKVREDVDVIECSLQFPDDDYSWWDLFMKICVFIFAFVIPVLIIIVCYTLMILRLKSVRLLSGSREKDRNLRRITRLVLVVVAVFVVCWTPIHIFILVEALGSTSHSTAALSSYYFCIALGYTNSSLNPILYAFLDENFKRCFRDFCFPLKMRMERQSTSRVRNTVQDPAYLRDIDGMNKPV
T4 sequence (P62813 whole entry): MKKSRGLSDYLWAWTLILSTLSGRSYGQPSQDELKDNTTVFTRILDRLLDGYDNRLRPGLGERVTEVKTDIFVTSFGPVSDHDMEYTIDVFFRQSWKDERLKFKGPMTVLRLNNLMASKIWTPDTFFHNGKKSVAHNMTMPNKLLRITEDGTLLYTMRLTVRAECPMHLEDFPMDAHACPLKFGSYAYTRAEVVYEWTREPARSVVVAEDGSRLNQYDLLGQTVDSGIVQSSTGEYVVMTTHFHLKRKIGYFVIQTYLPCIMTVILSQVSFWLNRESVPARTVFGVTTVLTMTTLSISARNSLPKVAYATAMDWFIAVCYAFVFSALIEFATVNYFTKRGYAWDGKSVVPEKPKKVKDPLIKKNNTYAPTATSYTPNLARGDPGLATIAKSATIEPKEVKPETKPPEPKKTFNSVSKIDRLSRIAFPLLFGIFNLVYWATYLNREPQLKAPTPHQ
Sequence of Melanocortin receptor 4 (P32245 whole entry): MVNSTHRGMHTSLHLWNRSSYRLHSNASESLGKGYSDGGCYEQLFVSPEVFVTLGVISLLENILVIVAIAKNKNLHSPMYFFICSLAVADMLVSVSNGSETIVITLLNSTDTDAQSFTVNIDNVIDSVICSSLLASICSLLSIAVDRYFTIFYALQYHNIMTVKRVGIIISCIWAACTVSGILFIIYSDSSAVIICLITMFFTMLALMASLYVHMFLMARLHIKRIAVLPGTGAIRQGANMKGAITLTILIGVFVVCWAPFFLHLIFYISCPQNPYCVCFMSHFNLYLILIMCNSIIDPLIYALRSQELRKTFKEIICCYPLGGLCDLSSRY

As to `CC(C)(N)Cc1ccccc1` [PHENTERMINE], the AC50 in series [1] is over 10 µM; in series [2] it was over 10 µM; in series [3] it was over 30 µM; in series [4], over 30 µM; in series [5], over 10 µM; in [6], over 10 µM. Further, the AC50 in series [7] is over 30 µM; in series [8], over 10 µM; in series [9], over 10 µM; in [10] it was over 10 µM; in [11], over 30 µM; in [12], over 30 µM. Further, the AC50 in [13] (read-out: AC50) was over 30 µM; in series [14], over 30 µM; in [15], over 10 µM; in series [16], over 30 µM; in series [17], over 30 µM.
Turning to `CC(C(=O)O)c1ccc(C(=O)c2ccccc2)s1` (stereo unspecified) [TIAPROFENIC ACID], the AC50 in [1], in [2], in series [3], in series [4], in series [5] and in series [6] was over 10 µM throughout. In addition, the AC50 in [7] was over 30 µM; in series [8], over 10 µM; in series [9], over 10 µM; in [10] it was over 30 µM; in series [11], over 10 µM; in series [12], over 30 µM. Moreover, the AC50 in series [13] (read-out: AC50) is 9.26 µM; in [14] it was over 10 µM; in series [15], over 10 µM; in [16] it was over 10 µM; in series [17] it was 8.6 µM.
Regarding TEPRENONE, the AC50 was over 10 µM in series [1]; over 30 µM in series [2]; 8.72 µM in [3]; over 30 µM in [4]; over 10 µM in [5]; over 10 µM in series [6]. In addition, the AC50 in series [7] is over 30 µM; in [8] it was over 10 µM; in [9], over 10 µM; in series [10], over 10 µM; in [11], over 30 µM; in series [12], over 30 µM. For the same compound, the AC50 in series [13] (human, cellular components) was over 30 µM; in series [14], over 30 µM; in series [15], 17 µM; in [16], over 30 µM; in series [17], over 30 µM.

Usually AC50 stands for the concentration at which the activity in the assay is half-maximal.
